In patent US8906904B2, “Alkoxy pyrazoles as soluble guanylate cyclase activators” (Boehringer Ingelheim International GmbH, priority 2012, dated 2014):
Values after ≈ are worked out from the molar mass of the structure shown.

Key:
[1] = Assessment of solubility (McIlvaine buffers, 24 h shake, UPLC-UV); assay type: physicochemical; conditions: kinetic from dmso stock
Outline: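 Compounds from 10 mM DMSO stocks were shaken for 24 h at room temperature in McIlvaine buffers at pH 2.2, 4.5 and 6.8 (2.5% v/v DMSO final), then filtered. Filtrates were quantified by UPLC-UV at 254 nm against a 50:50 acetonitrile/water reference assumed fully dissolved, as a single determination.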

[2] = human liver microsome (HLM) metabolic stability assay; assay type: in vitro ADME; conditions: human liver microsomes; % hepatic blood flow calculated from t1/2
Outline: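 Compounds at 1 uM incubated with human liver microsomes plus NADPH at 37° C., sampled at 0, 5, 15, 30 and 60 min into cold acetonitrile and quantified by LC/MS/MS. t½ from the slope of ln % remaining vs time; CLint, CLh and % Qh derived from it (n=1).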

Row | SMILES | solubility at 24 h ([1]; pH 2.2, aqueous buffer) | solubility at 24 h ([1]; pH 4.5, aqueous buffer) | solubility at 24 h ([1]; pH 6.8, aqueous buffer) | HLM (% Qh) [2]
1 | COCC(C)N1CCc2cc(COc3c(C)cccc3-c3cccc(-n4ncc(C(=O)O)c4OC)n3)ccc2C1 (stereo not drawn) [Compound 23] | 99 µg/mL (≈ 182 µM) | 79 µg/mL (≈ 146 µM) | 82 µg/mL (≈ 151 µM) | <24 % Qh
2 | COc1c(C(=O)O)cnn1-c1cccc(-c2cccc(C)c2OCc2ccc3c(c2C)CCN(C[C@H]2COCCO2)CC3)n1 [Compound 203] | 81 µg/mL (≈ 135 µM) | 70 µg/mL (≈ 117 µM) | 72 µg/mL (≈ 120 µM) | <24 % Qh
3 | CCc1cc(COc2c(C)cccc2-c2cccc(-n3ncc(C(=O)O)c3OC)n2)cc2c1CN(C1COC1)CC2 [Compound 249] | 94 µg/mL (≈ 169 µM) | 67 µg/mL (≈ 121 µM) | 93 µg/mL (≈ 168 µM) | <24 % Qh
4 | COc1c(C(=O)O)cnn1-c1cccc(-c2cccc(C)c2OCc2cc(C)c3c(c2)CCN(C2COC2)C3)n1 [Compound 186] | 110 µg/mL (≈ 203 µM) | 83 µg/mL (≈ 154 µM) | 99 µg/mL (≈ 183 µM) | <24 % Qh
5 | COc1c(C(=O)O)cnn1-c1cccc(-c2cccc(C)c2OCc2cc(C)c3c(c2)CCN(CC2(C)COC2)C3)n1 [Compound 239] | 91 µg/mL (≈ 160 µM) | 71 µg/mL (≈ 125 µM) | 72 µg/mL (≈ 127 µM) | 25 % Qh
6 | COc1c(C(=O)O)cnn1-c1cccc(-c2cccc(C)c2OCc2ccc3c(c2)CCN(C[C@@H]2CCOC2)C3)n1 [Compound 188] | 89 µg/mL (≈ 160 µM) | 77 µg/mL (≈ 139 µM) | 73 µg/mL (≈ 132 µM) | <24 % Qh
7 | CCOc1c(C(=O)O)cnn1-c1cccc(-c2cccc(C)c2OCc2ccc3c(c2C)CCN(C[C@@H]2CCOC2)C3)n1 [Compound 189] | 89 µg/mL (≈ 153 µM) | 73 µg/mL (≈ 125 µM) | 75 µg/mL (≈ 129 µM) | 26 % Qh
8 | COc1c(C(=O)O)cnn1-c1cccc(-c2cccc(C)c2OCc2cc(F)c3c(c2)CCN(C2CCOCC2)C3)n1 [Compound 201] | 87 µg/mL (≈ 152 µM) | 68 µg/mL (≈ 119 µM) | 66 µg/mL (≈ 115 µM) | <24 % Qh
9 | COc1c(C(=O)O)cnn1-c1cccc(-c2cccc(C)c2OCc2cc(F)c3c(c2)CCN(C[C@H]2CCCCO2)C3)n1 [Compound 229] | 100 µg/mL (≈ 170 µM) | 81 µg/mL (≈ 138 µM) | 73 µg/mL (≈ 124 µM) | 34 % Qh
10 | COc1c(C(=O)O)cnn1-c1cccc(-c2cccc(C)c2OCc2ccc3c(c2F)CCN(C[C@@H]2COCCO2)C3)n1 [Compound 231] | 120 µg/mL (≈ 204 µM) | 92 µg/mL (≈ 156 µM) | 87 µg/mL (≈ 148 µM) | <24 % Qh
11 | CCOc1c(C(=O)O)cnn1-c1cccc(-c2cccc(C)c2OCc2ccc3c(c2C)CCN(C[C@@H]2CCO2)CC3)n1 [Compound 228] | 96 µg/mL (≈ 165 µM) | 78 µg/mL (≈ 134 µM) | 81 µg/mL (≈ 139 µM) | 44 % Qh
12 | CCOc1c(C(=O)O)cnn1-c1cccc(-c2cccc(C)c2OCc2ccc3c(c2)CCN(C2COC2)CC3)n1 [Compound 213] | 85 µg/mL (≈ 153 µM) | 66 µg/mL (≈ 119 µM) | 72 µg/mL (≈ 130 µM) | <24 % Qh
13 | COc1c(C(=O)O)cnn1-c1cccc(-c2cccc(C)c2OCc2ccc3c(c2C)CCN(CC2CC(F)(F)C2)C3)n1 [Compound 29] | 110 µg/mL (≈ 187 µM) | 79 µg/mL (≈ 134 µM) | 78 µg/mL (≈ 133 µM) | 28 % Qh
14 | COc1c(C(=O)O)cnn1-c1cccc(-c2cccc(C)c2OCc2ccc3c(c2Cl)CCN(C2CCOC2)C3)n1 (stereo not drawn) [Compound 22] | 97 µg/mL (≈ 169 µM) | 68 µg/mL (≈ 118 µM) | 73 µg/mL (≈ 127 µM) | 33 % Qh
15 | COc1c(C(=O)O)cnn1-c1cccc(-c2cccc(C)c2OCc2ccc3c(c2C)CCN(C2CCCOC2)C3)n1 (stereo not drawn) [Compound 238] | 77 µg/mL (≈ 135 µM) | 55 µg/mL (≈ 96.7 µM) | 52 µg/mL (≈ 91.4 µM) | <24 % Qh
16 | COc1c(C(=O)O)cnn1-c1cccc(-c2cccc(C)c2OCc2ccc3c(c2)CCN(CC2CC2)C3)n1 [Compound 24] | 95 µg/mL (≈ 181 µM) | 76 µg/mL (≈ 145 µM) | 76 µg/mL (≈ 145 µM) | <24 % Qh
17 | COc1c(C(=O)O)cnn1-c1cccc(-c2cccc(C)c2OCc2ccc3c(c2)C(C)(C)CN(CC2COCCO2)C3)n1 (stereo not drawn) [Compound 219] | 110 µg/mL (≈ 184 µM) | 76 µg/mL (≈ 127 µM) | 74 µg/mL (≈ 124 µM) | 89 % Qh
18 | COc1c(C(=O)O)cnn1-c1cccc(-c2cccc(C)c2OCc2ccc3c(c2)CCN(C2CCOC2)C3)n1 (stereo not drawn) [Compound 15] | 110 µg/mL (≈ 203 µM) | 88 µg/mL (≈ 163 µM) | 90 µg/mL (≈ 166 µM) | <24 % Qh
19 | CCOc1c(C(=O)O)cnn1-c1cccc(-c2cccc(C)c2OCc2ccc3c(c2C)CCN(C[C@H]2CCCCO2)CC3)n1 [Compound 214] | 81 µg/mL (≈ 133 µM) | 64 µg/mL (≈ 105 µM) | 69 µg/mL (≈ 113 µM) | <24 % Qh
20 | CCOc1c(C(=O)O)cnn1-c1cccc(-c2cccc(C)c2OCc2ccc3c(c2C)CCN(C[C@@H]2COCCO2)CC3)n1 [Compound 211] | 95 µg/mL (≈ 155 µM) | 82 µg/mL (≈ 134 µM) | 78 µg/mL (≈ 127 µM) | <24 % Qh
21 | CCOc1c(C(=O)O)cnn1-c1cccc(-c2cccc(C)c2OCc2ccc3c(c2C)CCN(CC2(F)COC2)C3)n1 [Compound 208] | 82 µg/mL (≈ 140 µM) | 47 µg/mL (≈ 80.1 µM) | 57 µg/mL (≈ 97.2 µM) | <24 % Qh
22 | COc1c(C(=O)O)cnn1-c1cccc(-c2cccc(C)c2OCc2ccc3c(c2C)CCN(C[C@H]2CCCO2)CC3)n1 [Compound 222] | 85 µg/mL (≈ 146 µM) | 71 µg/mL (≈ 122 µM) | 73 µg/mL (≈ 125 µM) | <24 % Qh
23 | COc1c(C(=O)O)cnn1-c1cccc(-c2cccc(C)c2OCc2ccc3c(c2)CCN(CC2CCC2)C3)n1 [Compound 25] | 91 µg/mL (≈ 169 µM) | 38 µg/mL (≈ 70.5 µM) | 39 µg/mL (≈ 72.4 µM) | 29 % Qh
24 | COc1c(C(=O)O)cnn1-c1cccc(-c2cccc(C)c2OCc2ccc3c(c2F)CCN(C[C@H]2COCCO2)C3)n1 [Compound 234] | 120 µg/mL (≈ 204 µM) | 97 µg/mL (≈ 165 µM) | 91 µg/mL (≈ 155 µM) | <24 % Qh
25 | COc1c(C(=O)O)cnn1-c1cccc(-c2cccc(C)c2OCc2ccc3c(c2C)CCN(C[C@H]2CCCCO2)C3)n1 [Compound 199] | 120 µg/mL (≈ 206 µM) | 96 µg/mL (≈ 165 µM) | 92 µg/mL (≈ 158 µM) | <24 % Qh
26 | CCOc1c(C(=O)O)cnn1-c1cccc(-c2cccc(C)c2OCc2ccc3c(c2C)CCN(CC2COCCO2)C3)n1 (stereo in doubt) [Compound 185, 1-{6-[2-(2-(S)-1-[1,4]Dioxan-2-ylmethyl-5-methyl-1,2,3,4-tetrahydro-isoquinolin-6-ylmethoxy)-3-methyl-phenyl]-pyridin-2-yl}-5-ethoxy-1H-pyrazole-4-carboxylic acid] | 100 µg/mL (≈ 167 µM) | 83 µg/mL (≈ 139 µM) | 82 µg/mL (≈ 137 µM) | <24 % Qh
27 | COc1c(C(=O)O)cnn1-c1cccc(-c2cccc(C)c2OCc2cc(C#N)c3c(c2)CCN(C2CCOCC2)C3)n1 [Compound 250] | 110 µg/mL (≈ 190 µM) | 81 µg/mL (≈ 140 µM) | 86 µg/mL (≈ 148 µM) | <24 % Qh
